Measured values: ChEMBL document CHEMBL3638844, “Heterocyclic kinase inhibitors” (2014)
pIC50: −log10 of the molar value.

Legend:
[1] = target: Serine/threonine-protein kinase pim-1 (Homo sapiens, UniProt P11309); experiment: ATP Depletion Assay: The activity of PIM1 is measured using a luciferase-luciferin based ATP detection reagent to quantify ATP depletion resulting from kinase-catalyzed phosphoryl transfer to a peptide substrate. Compounds to be tested are dissolved in 100% DMSO and directly distributed into white 384-well plates at 0.5 uA per well. To start the reaction, 10 ul of 5 nM Pim1 kinase and 80 uM BAD peptide (RSRHSSYPAGT-OH) in assay buffer (50 mM HEPES pH 7.5, 5 mM MgCl2, 1 mM DTT, 0.05% BSA) is added into each well. After 15 minutes, 10 ul of 40 uM ATP in assay buffer is added. Final assay concentrations are 2.5 nM PIM1, 20 uM ATP, 40 uM BAD peptide and 2.5% DMSO. The reaction is performed until approximately 50% of the ATP is depleted, then stopped with the addition of 20 ul KinaseGlo Plus (Promega Corporation) solution. The stopped reaction is incubated for 10 minutes and the remaining ATP detected via luminescence on the Victor2 (Perkin Elmer).
Serine/threonine-protein kinase pim-1, sequence (P11309 whole entry): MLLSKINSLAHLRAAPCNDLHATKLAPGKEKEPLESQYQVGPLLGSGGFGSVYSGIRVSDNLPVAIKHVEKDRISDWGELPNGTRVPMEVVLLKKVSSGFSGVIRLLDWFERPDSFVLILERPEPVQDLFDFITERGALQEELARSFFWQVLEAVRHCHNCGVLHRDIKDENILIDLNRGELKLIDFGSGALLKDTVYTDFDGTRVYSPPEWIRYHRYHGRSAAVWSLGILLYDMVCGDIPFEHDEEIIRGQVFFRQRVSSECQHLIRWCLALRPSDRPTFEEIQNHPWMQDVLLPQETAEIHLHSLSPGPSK

[2] = target: Serine/threonine-protein kinase pim-2 (Homo sapiens, UniProt Q9P1W9); experiment: ATP Depletion Assay: The activity of PIM2 is measured using a luciferase-luciferin based ATP detection reagent to quantify ATP depletion resulting from kinase-catalyzed phosphoryl transfer to a peptide substrate. Compounds to be tested are dissolved in 100% DMSO and directly distributed into white 384-well plates at 0.5 ul per well. To start the reaction, 10 ul of 10 nM Pim2 kinase and 20 uM BAD peptide (RSRHSSYPAGT-OH) in assay buffer (50 mM HEPES pH 7.5, 5 mM MgCl2, 1 mM DTT, 0.05% BSA) is added into each well. After 15 minutes, 10 ul of 8 uM ATP in assay buffer is added. Final assay concentrations are 5 nM PIM2, 4 uM ATP, 10 uM BAD peptide and 2.5% DMSO. The reaction is performed until approximately 50% of the ATP is depleted, then stopped with the addition of 20 ul KinaseGlo Plus (Promega Corporation) solution. The stopped reaction is incubated for 10 minutes and the remaining ATP detected via luminescence on the Victor2 (Perkin Elmer).
Serine/threonine-protein kinase pim-2, sequence (Q9P1W9 whole entry): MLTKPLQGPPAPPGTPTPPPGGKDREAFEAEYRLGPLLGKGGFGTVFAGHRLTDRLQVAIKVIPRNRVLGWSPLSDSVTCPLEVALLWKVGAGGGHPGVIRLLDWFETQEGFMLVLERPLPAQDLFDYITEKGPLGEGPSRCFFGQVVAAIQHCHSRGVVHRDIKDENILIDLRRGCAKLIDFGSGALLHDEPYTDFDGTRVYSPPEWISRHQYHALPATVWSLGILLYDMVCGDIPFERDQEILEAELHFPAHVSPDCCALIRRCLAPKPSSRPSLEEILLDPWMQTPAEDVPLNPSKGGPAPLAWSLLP

[3] = target: Serine/threonine-protein kinase pim-3 (Homo sapiens, UniProt Q86V86); experiment: ATP Depletion Assay: The activity of PIM3 is measured using a luciferase-luciferin based ATP detection reagent to quantify ATP depletion resulting from kinase-catalyzed phosphoryl transfer to a peptide substrate. Compounds to be tested are dissolved in 100% DMSO and directly distributed into white 384-well plates at 0.5 uA per well. To start the reaction, 10 ul of 10 nM Pim3 kinase and 200 uM BAD peptide (RSRHSSYPAGT-OH) in assay buffer (50 mM HEPES pH 7.5, 5 mM MgCl2, 1 mM DTT, 0.05% BSA) is added into each well. After 15 minutes, 10 ul of 80 uM ATP in assay buffer is added. Final assay concentrations are […], 40 uM ATP, 100 uM BAD peptide and 2.5% DMSO. The reaction is performed until approximately 50% of the ATP is depleted, then stopped by the addition of 20 ul KinaseGlo Plus (Promega Corporation) solution. The stopped reaction is incubated for 10 minutes and the remaining ATP detected via luminescence on the Victor2 (Perkin Elmer).

pIC50 [1] | pIC50 [2] | pIC50 [3] | SMILES
6.10 | 6.54 |  | N[C@H]1C[C@@H](CO)CN(c2ccncc2Nc2cccc3ccc(-c4c(F)cccc4F)nc23)C1
6.23 | 6.29 | 7.21 | N[C@H]1C[C@@H](O)CN(c2ccncc2Nc2cccc3ccc(-c4c(F)cccc4F)nc23)C1
